For assay [1], the system named is CC mismatched DNA (melting temperature experiment) (DNA, mismatch bulge abasic) ATCGTCTCGGTATAA/TTATACCCAGACGAT
Description: UV melting at 260 nm. The settings on record: compound equimolar to DNA.

For assay [2], the system named is matched DNA (melting temperature experiment) (DNA, duplex) ATCGTCTCGGTATAA/TTATACCGAGACGAT
Description: UV melting at 260 nm. The settings on record: compound equimolar to DNA.

As a reminder, the ΔTm is the change in melting temperature against a reference sample.

With `C1CCC(P(CP(C2CCCCC2)C2CCCCC2)C2CCCCC2)CC1.[Pt+2].[Pt+2].[c-]1ccccc1-c1cccc(-c2ccccn2)n1.[c-]1ccccc1-c1cccc(-c2ccccn2)n1`, the shift in melting temperature (ΔTm) in assay [1] came to 6.8 °C; in assay [2] it was 0.5 °C.

These data come from article PMC4757794 (2016).
